In article PMC8534150, “New Insights to Regulation of Fructose-1,6-bisphosphatase during Anoxia in Red-Eared Slider, Trachemys scripta elegans” (Biomolecules, 2021):

Key:
Assay in all cases: coupled phosphoglucoisomerase / glucose-6-phosphate dehydrogenase assay, NADP+ reduction at […] nm
Format in all cases: biochemical, Trachemys scripta elegans
FBPase (control liver) [1] = target: T1, FBPase (control liver); settings: inhibitor, allosteric, pH 7.2 imidazole, 5 mM MgSO4, 0.2 mM NADP+, 22 °C, FBP 0.1 mM as optimal assay
T1 construct: gene FBP1; native, purified from liver of normoxic control turtles (phosphocellulose, CM cellulose); ~37 kDa on SDS-PAGE; band sent for mass spectrometry; tetramer in homology model

FBPase (anoxic liver) [2] = target: T2, FBPase (anoxic liver); settings: inhibitor, allosteric; pH 7.2 imidazole, 5 mM MgSO4, 0.2 mM NADP+, 22 °C; FBP 0.1 mM as optimal assay; enzyme from anoxic liver
T2 construct: gene FBP1; native, purified from liver of 20 h anoxic turtles

FBPase (anoxic liver) [3] = target: T2, FBPase (anoxic liver); settings: activation constant, activator, pH 7.2 imidazole, 5 mM MgSO4, 22 °C, enzyme from anoxic liver
FBPase (control liver) [4] = target: T1, FBPase (control liver); settings: activation constant, activator, pH 7.2 imidazole, 5 mM MgSO4, 22 °C
FBPase (anoxic liver) [5] = system: T2, FBPase (anoxic liver); settings: pH 7.2 imidazole, 5 mM MgSO4, 0.2 mM NADP+, 22 °C; paper states subsaturating FBP (0.24 µM); enzyme from anoxic liver
FBPase (control liver) [6] = system: T1, FBPase (control liver); settings: pH 7.2 imidazole, 5 mM MgSO4, 0.2 mM NADP+, 22 °C; paper states subsaturating FBP (0.24 µM)

Row | Compound | IC50 (FBPase (anoxic liver) [2]) [µM] | EC50 (FBPase (anoxic liver) [3]) [µM] | EC50 (FBPase (control liver) [4]) [µM] | other results
1 | Nc1ncnc2c1ncn2[C@@H]1O[C@H](COP(=O)(O)OP(=O)(O)O)[C@@H](O)[C@H]1O [ADP] | 8.3 ± 0.6 |  |  | IC50 (FBPase (control liver) [1]; text b33 prints mM for this value, table µM): 0.0118 ± 0.0003 mM
2 | Nc1ncnc2c1ncn2[C@@H]1O[C@H](COP(=O)(O)O)[C@@H](O)[C@H]1O [AMP] | 3.6 ± 0.3 |  |  | IC50 (FBPase (control liver) [1]): 0.0061 ± 0.0001 mM
3 | Nc1ncnc2c1ncn2[C@@H]1O[C@H](COP(=O)(O)OP(=O)(O)OP(=O)(O)O)[C@@H](O)[C@H]1O [ATP.Mg] |  |  |  | EC50 (FBPase (anoxic liver) [3]; ATP.Mg 1:1): 25 ± 0.9 µM; EC50 (FBPase (control liver) [4]; ATP.Mg 1:1): 144 ± 7 µM
4 | O=P(O)(O)OC[C@H]1OC(O)(COP(=O)(O)O)[C@@H](O)[C@@H]1O (stereo partly drawn) [FBP] |  |  |  | Km (FBPase (anoxic liver) [5]): 59.8 ± 5.2 µM; Km (FBPase (control liver) [6]): 26.9 ± 3 µM

Further lines, with some results ahead:

Row | IC50 (FBPase (anoxic liver) [2]) [µM] | EC50 (FBPase (anoxic liver) [3]) [µM] | EC50 (FBPase (control liver) [4]) [µM] | Compound | other results
5 |  | 3.3 ± 0.1 | 2.85 ± 0.24 | C[C@H](N)C(=O)O [Alanine] | 
6 |  | 3.3 ± 0.2 | 0.33 ± 0.09 | C=C(OP(=O)(O)O)C(=O)O [PEP] | 
